{"source": "paper PMC9768205", "about": "“Pharmacological targeting of the mitochondrial calcium-dependent potassium channel KCa3.1 triggers cell death and reduces tumor growth and metastasis in vivo” (Cell Death & Disease, 2022)", "target": "T1, KCa3.1 (Homo sapiens, UniProt O15554)", "T1 construct": "gene KCNN4", "T1 sequence (O15554 whole entry)": "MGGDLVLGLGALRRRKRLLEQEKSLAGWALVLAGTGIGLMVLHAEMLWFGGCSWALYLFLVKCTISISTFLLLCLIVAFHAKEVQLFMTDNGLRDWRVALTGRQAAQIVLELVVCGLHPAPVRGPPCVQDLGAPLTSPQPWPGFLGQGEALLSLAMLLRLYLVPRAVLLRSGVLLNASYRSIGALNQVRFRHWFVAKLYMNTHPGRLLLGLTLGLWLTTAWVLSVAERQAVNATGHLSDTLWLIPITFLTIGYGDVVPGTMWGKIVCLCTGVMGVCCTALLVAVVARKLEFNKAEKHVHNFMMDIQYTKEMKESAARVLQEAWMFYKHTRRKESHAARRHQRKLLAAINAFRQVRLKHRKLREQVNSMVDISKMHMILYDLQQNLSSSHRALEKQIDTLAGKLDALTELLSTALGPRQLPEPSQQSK", "experiment": "whole-cell perforated patch clamp, block of DC-EBIO/ionomycin-activated current", "assay_type": "cell-based"}
{"smiles": "Clc1ccccc1C(c1ccccc1)(c1ccc(CCC[P+](c2ccccc2)(c2ccccc2)c2ccccc2)cc1)n1cccn1", "note": "(stereo not shown) [mitoTRAM-34, (3-(4-((2-chlorophenyl)(phenyl)(1H-pyrazol-1yl)methyl)phenyl)propyl)triphenylphosphonium iodide]", "values": [{"measurement": "IC50", "value": "~2000", "unit": "nM"}]}
